Measured values: US20240315993A1, “ANTIPARASITIC COMPOUNDS” (Intervet Inc., priority 2021, published 2024)

Tests used:
[1] = test system: juvenile soft ticks (Ornithodoros moubata); assay: Guinea pig - efficacy against argaside tick; type: in vivo
Procedure: (§1) Guinea pigs were locally co-infested (using an infestation device on a shaved skin area) with juvenile soft ticks (Ornithodoros moubata) and bed bugs (Cimex lectularius) before the treatment day (Day 0) to provide a baseline-negative control value. Guinea pigs were treated orally (by gavage) or subcutaneously at a dose of 5 mg/kg bodyweight of a test compound in a formulation of 10% DMF/Emulsifier+90% Aqua ad injectabilia.
(§2) Repeated local infestations with both parasites were performed at different time points after treatment. Within approximately 45 min after each infestation ten engorged ticks and ten engorged bed bugs were • collected and the percentage of dead and damaged parasites per species were • assessed approximately 24 hours following collection. The efficacy was • calculated as % of inhibition ‘killed+damaged’ parasites in a treated group in comparison to the baseline-negative control (using a modified Schneider Orelli's formula).
(§3) Results: Activity of the test compounds at different evaluation time-points (≥80% inhibition were found active): […]

[2] = test system: Copepodids (juvenile sea lice stage of Lepeophtheirus salmonis); assay: Juvenile sea lice contact assay; conditions: ~24 h
Procedure: Copepodids (juvenile sea lice stage of Lepeophtheirus salmonis) were exposed to seawater spiked with declining concentrations of a test compound (dissolved in a DMSO sea-water mixture). Sea lice inhibition (% of dead+damaged copepodids) was assessed after approximately 24 hours of continuous exposure. The vitality of used parasites was confirmed in a negative (solvent) control group.

[3] = test system: Mobile stages of sea lice (pre-adults, adults of Lepeophtheirus salmonis); assay: Adult sea lice contact assay; conditions: pre-adults/adults, assessed after ~1 and 24 h, read-out: EC50 (sea lice inhibition, dead+damaged)
Procedure: Mobile stages of sea lice (i.e., pre-adults, adults of Lepeophtheirus salmonis) were exposed to seawater spiked with declining concentrations of a test compound (dissolved in a PEG sea-water mixture). Sea lice inhibition (% of dead+damaged sea lice) was assessed after approximately 1 and 24 hours of continuous exposure in comparison to a negative (solvent) control group.

[4] = test system: bed bugs (Cimex lectularius); assay: Guinea pig - efficacy against bed bug; type: in vivo; conditions: Day 0
Procedure: as §1, §2, §3

Lepeophtheirus salmonis = assay: Salmon - in vivo efficacy against sea lice using gavage administration; conditions: 5 mg/kg once by gavage; for therapeutic efficacy against juvenile sea lice (% reduction vs control): day -3 infestation; for therapeutic efficacy against juvenile sea lice (% reduction vs control) / prophylactic efficacy at re-infestation on Day 17 (% reduction vs control): counted around day 28; for therapeutic efficacy against (pre-)adult sea lice (% reduction vs control): day -28 infestation, counted day 7
Procedure: Salmon (Salmo solar) were treated once orally by gavage at a dose of 5 mg/kg bodyweight per fish (Day 0). As formulation DMSO 5%/fish oil 95% was used. Salmon of the negative control group received only the excipients of the formulation.
The fish were infested with Lepeophtheirus salmonis copepodids twice before treatment (i.e., around day −28 and day −3) and once after treatment (i.e., day 17).
Around day 28 (end of animal phase), fish were euthanized, and lice on each fish were classified ((pre-)adult or juvenile stage) and counted. […] Efficacy is expressed as a % reduction of sea lice in treated groups versus a control group, using the Abbott's formula.

[5] = test system: Beet Armyworm (Spodoptera exigua); conditions: 128-well diet tray, average of eight wells, cited from earlier work; for Test A: Bioassay on BAW, percent mortality rating: Beet Armyworm second instar larvae, 50 μg/cm^2, five to seven days; for Test A: percent mortality of Beet Armyworm (BAW) larvae, rating: 50 μg/cm^2 on artificial diet, second instar larvae, 5-7 days
[6] = test system: Cabbage Looper (Trichoplusia ni); conditions: 128-well diet tray, average of eight wells, cited from earlier work; for Test B: Bioassay on CL, percent mortality rating: Cabbage Looper second instar larvae, 50 μg/cm^2, five to seven days; for Test B: percent mortality of Cabbage Looper (CL) larvae, rating: 50 μg/cm^2 on artificial diet, second instar larvae, 5-7 days
[7] = test system: Yellow Fever Mosquito (Aedes aegypti); conditions: 96-well plate, cited from earlier work; for Test C: Bioassay on Yellow Fever Mosquito, mortality rating: Aedes aegypti larvae about 1 day old, scored after 3 days; for Test C: mortality of Yellow Fever Mosquito larvae, rating: about 1 day-old larvae, graded after 3 days at room temperature

Row | Compound | Test A: Bioassay on BAW, percent mortality rating [5] | Test B: Bioassay on CL, percent mortality rating [6] | Test C: Bioassay on Yellow Fever Mosquito, mortality rating [7] | Test A: percent mortality of Beet Armyworm (BAW) larvae, rating [5] | Test B: percent mortality of Cabbage Looper (CL) larvae, rating [6] | Test C: mortality of Yellow Fever Mosquito larvae, rating [7] | also measured
1 | Cc1cc(NC(=O)c2cc(NC(=O)[C@H]3[C@H](c4cc(Cl)cc(Cl)c4)C3(Cl)Cl)ccc2Cl)ncc1F [Compound 454] |  |  |  |  |  |  | activity against tick nymphs (≥80% inhibition, killed+damaged) ([1]; 5 mg/kg oral, Day 0): immediate activity; activity against tick nymphs (≥80% inhibition, killed+damaged) ([1]; 5 mg/kg subcutaneous, Day 0): immediate activity; activity against tick nymphs (≥80% inhibition, killed+damaged) ([1]; 5 mg/kg subcutaneous, after 7 days): activity; activity against tick nymphs (≥80% inhibition, killed+damaged) ([1]; 5 mg/kg subcutaneous, after 10 days): activity; duration of efficacy, subcutaneous compared with oral administration ([1]; 5 mg/kg, ticks and bed bugs): longer duration of efficacy; inhibition at 0.1 µM ([2]; Lepeophtheirus salmonis, 100 nM in seawater, read-out: Sea lice inhibition (% of dead+damaged copepodids)): 100%; EC50 [3]: ≤ 10 nM; activity against bed bugs (≥80% inhibition, killed+damaged) ([4]; 5 mg/kg oral): immediate activity; activity against bed bugs (≥80% inhibition, killed+damaged) ([4]; 5 mg/kg subcutaneous): immediate activity
2 | Cc1c(F)cc(NC(=O)C2C(c3cc(Cl)cc(Cl)c3)C2(Cl)Cl)cc1C(=O)Nc1ncc(F)cc1F (centres unmarked) [Compound 457] |  |  |  |  |  |  | therapeutic efficacy against juvenile sea lice (% reduction vs control) (Lepeophtheirus salmonis): 100%; therapeutic efficacy against (pre-)adult sea lice (% reduction vs control) (Lepeophtheirus salmonis): 80%
3 | O=C(Nc1c(F)cccc1F)c1cc(NC(=O)C2C(c3cc(Cl)cc(Cl)c3)C2(Cl)Cl)ccc1Cl (centres unmarked) [Compound 458] |  |  |  |  |  |  | prophylactic efficacy at re-infestation on Day 17 (% reduction vs control) (Lepeophtheirus salmonis): 80%; therapeutic efficacy against juvenile sea lice (% reduction vs control) (Lepeophtheirus salmonis): 100%; therapeutic efficacy against (pre-)adult sea lice (% reduction vs control) (Lepeophtheirus salmonis): 100%
4 | O=C(Nc1ncc(F)cc1F)c1cc(NC(=O)C2C(c3cc(Cl)cc(Cl)c3)C2(Cl)Cl)ccc1F (centres unmarked) [Compound 463] |  |  |  |  |  |  | Sea lice inhibition (% of dead+damaged copepodids) ([2]; 1 nM in seawater): 100%; therapeutic efficacy against juvenile sea lice (% reduction vs control) (Lepeophtheirus salmonis): 100%; therapeutic efficacy against (pre-)adult sea lice (% reduction vs control) (Lepeophtheirus salmonis): 100%
5 | O=C(Nc1ncc(F)cc1F)c1cc(NC(=O)C2C(c3cc(Cl)cc(Cl)c3)C2(Cl)Cl)cc(F)c1Cl (centres unmarked) [Compound 464] |  |  |  |  |  |  | prophylactic efficacy at re-infestation on Day 17 (% reduction vs control) (Lepeophtheirus salmonis): 100%; therapeutic efficacy against juvenile sea lice (% reduction vs control) (Lepeophtheirus salmonis): 100%; therapeutic efficacy against (pre-)adult sea lice (% reduction vs control) (Lepeophtheirus salmonis): 100%
6 | O=C(Nc1ncc(F)cc1F)c1cc(NC(=O)C2C(c3cc(F)c(F)c(F)c3)C2(Cl)Cl)ccc1Cl (centres unmarked) [Compound 478] |  |  |  |  |  |  | therapeutic efficacy against juvenile sea lice (% reduction vs control) (Lepeophtheirus salmonis): 80%; therapeutic efficacy against (pre-)adult sea lice (% reduction vs control) (Lepeophtheirus salmonis): 100%
7 | O=C(Nc1ncc(F)cc1F)c1cc(NC(=O)C2C(c3cc(F)c(F)c(F)c3)C2(Cl)Cl)ccc1F (centres unmarked) [Compound 479] |  |  |  |  |  |  | therapeutic efficacy against juvenile sea lice (% reduction vs control) (Lepeophtheirus salmonis): 80%; therapeutic efficacy against (pre-)adult sea lice (% reduction vs control) (Lepeophtheirus salmonis): 100%
8 | O=C(Nc1ncc(F)cc1F)c1c(F)ccc(NC(=O)C2C(c3cc(Cl)cc(Cl)c3)C2(Cl)Cl)c1F (centres unmarked) [Compound 480] |  |  |  |  |  |  | therapeutic efficacy against juvenile sea lice (% reduction vs control) (Lepeophtheirus salmonis): 100%; therapeutic efficacy against (pre-)adult sea lice (% reduction vs control) (Lepeophtheirus salmonis): 100%
9 | O=C(Nc1cncc([N+](=O)[O-])c1)c1cc(NC(=O)C2C(c3cc(Cl)cc(Cl)c3)C2(Cl)Cl)ccc1Cl (centres unmarked) [c106] | A (50-100) | A (50-100) | A (80-100) |  |  |  | 
10 | O=C(Nc1cncc([N+](=O)[O-])c1)c1cc(NC(=O)C2C(c3ccc(Cl)c(Cl)c3)C2(Cl)Cl)ccc1Cl (centres unmarked) [c107] | A (50-100) | A (50-100) | A (80-100) |  |  |  | 
11 | O=C(Nc1cncc(NO)c1)c1cc(NC(=O)C2C(c3cc(Cl)cc(Cl)c3)C2(Cl)Cl)ccc1Cl (centres unmarked) [c108] | A (50-100) | A (50-100) | A (80-100) |  |  |  | 
12 | Nc1cncc(NC(=O)c2cc(NC(=O)C3C(c4cc(Cl)cc(Cl)c4)C3(Cl)Cl)ccc2Cl)c1 (centres unmarked) [c109] | A (50-100) | A (50-100) | A (80-100) |  |  |  | 
13 | O=C(Nc1cncc(NO)c1)c1cc(NC(=O)C2C(c3ccc(Cl)c(Cl)c3)C2(Cl)Cl)ccc1Cl (centres unmarked) [c110] | A (50-100) | A (50-100) | A (80-100) |  |  |  | 
14 | Nc1cncc(NC(=O)c2cc(NC(=O)C3C(c4ccc(Cl)c(Cl)c4)C3(Cl)Cl)ccc2Cl)c1 (centres unmarked) [c111] | A (50-100) | A (50-100) | A (80-100) |  |  |  | 
15 | Cn1ccc2c(NC(=O)c3cc(NC(=O)C4C(c5cc(Cl)cc(Cl)c5)C4(Cl)Cl)ccc3Cl)cccc21 (centres unmarked) [c112] | A (50-100) | A (50-100) | A (80-100) |  |  |  | 
16 | Cn1ccc2cccc(NC(=O)c3cc(NC(=O)C4C(c5cc(Cl)cc(Cl)c5)C4(Cl)Cl)ccc3Cl)c21 (centres unmarked) [c113] | A (50-100) | A (50-100) | A (80-100) |  |  |  | 
17 | Cc1cc(N)ccc1NC(=O)c1cc(NC(=O)C2C(c3ccc(Cl)c(Cl)c3)C2(Cl)Cl)ccc1Cl (centres unmarked) [c114] | A (50-100) | A (50-100) | A (80-100) |  |  |  | 
18 | COCC(=O)N(C)c1ccc(NC(=O)c2cc(NC(=O)C3C(c4cc(Cl)cc(Cl)c4)C3(Cl)Cl)ccc2Cl)cc1 (centres unmarked) [c115] |  |  |  | A (50-100) | A (50-100) | B (More than 0 - Less than 80) | 
19 | CNc1ccc(NC(=O)c2cc(NC(=O)C3C(c4cc(Cl)cc(Cl)c4)C3(Cl)Cl)ccc2Cl)cc1C (centres unmarked) [c116] |  |  |  | A (50-100) | A (50-100) | A (80-100) | 
20 | CC(=O)Nc1ccc(NC(=O)c2cc(NC(=O)C3C(c4ccc(F)c(Cl)c4)C3(Cl)Cl)ccc2Cl)cc1 (centres unmarked) [c117] |  |  |  | A (50-100) | A (50-100) | A (80-100) | 
21 | CC(=O)Nc1ccc(NC(=O)c2cc(NC(=O)[C@H]3[C@H](c4ccc(F)c(Cl)c4)C3(Cl)Cl)cc(Cl)c2C)cc1 [c118] |  |  |  | A (50-100) | A (50-100) | A (80-100) | 
22 | O=C(Nc1ccccc1)c1cc(NC(=O)[C@H]2[C@H](c3ccc(F)c(Cl)c3)C2(Cl)Cl)cc(C(F)(F)F)c1Cl [c121] |  |  |  | A (50-100) | A (50-100) | A (80-100) | 
23 | O=C(Nc1ccccc1)c1c(Cl)ccc(NC(=O)[C@H]2[C@H](c3ccc(F)c(Cl)c3)C2(Cl)Cl)c1Cl [c122] |  |  |  | A (50-100) | A (50-100) | A (80-100) | 
24 | Cc1c(N)ccc(NC(=O)c2cc(NC(=O)C3C(c4ccc(F)c(C(F)(F)F)c4)C3(Cl)Cl)ccc2Cl)c1C (centres unmarked) [c123] |  |  |  | A (50-100) | A (50-100) | A (80-100) | 
25 | Cc1c(NC(=O)c2cc(NC(=O)C3C(c4ccc(F)c(C(F)(F)F)c4)C3(Cl)Cl)ccc2Cl)ccc(NC(=O)C(F)(F)F)c1C (centres unmarked) [c124] |  |  |  | A (50-100) | A (50-100) | A (80-100) | 
26 | Cc1c(NC(=O)c2cc(NC(=O)C3C(c4ccc(F)c(C(F)(F)F)c4)C3(Cl)Cl)ccc2Cl)cccc1NC(=O)C(F)(F)F (centres unmarked) [c125] |  |  |  | A (50-100) | A (50-100) | A (80-100) | 
